From patent US20250108064A1, “PHOSPHATE PRODRUGS OF CANNABINOIDS” (priority 2021, published 2025)
≈ marks a conversion by molar mass, not a printed value.

How the values were obtained:
[1] = Simulated Gastric Fluid stability assay; type: in vitro ADME; details: simulated gastric fluid (SGF) with pepsin, pH 1.2; SGF pH about 1.2 with pepsin, 37° C.; read-out: T½ in SGF (converted)
Protocol: General Experimental: Simulated Gastric Fluid (SGF) is a pH 1.2 HCl solution with purified pepsin (800-2500 units of activity) (Test Solutions, The United States Pharmacopoeia (USP), 2008). SGF was prepared according to a procedure described in Test Solution—USP and other published articles (Bioorganic Chemistry, 49 (2013), 40-48). Sodium chloride 0.20 g and purified pepsin 0.32 g (Sigma), derived from porcine stomach mucosa with an activity of 800 to 2500 units per mg of protein, were dissolved in 0.70 mL hydrochloric acid and sufficient water to make 100 mL. […] The SGF solution prepared was used for in vitro studies to evaluate the prodrug stability.
At specified time intervals, aliquots (100 μL) were withdrawn and added to pre-cooled 100% acetonitrile (200 μL spiked with ISTD) and mixed well by vortex mixing for 2 min. The mixture was centrifuged at 13000 rpm for 15 min at 4° C.

[2] = Liver microsome stability assay (HLM); type: in vitro ADME; details: human, microsomes, pH 7.4; 3 μM test compound, NADPH; read-out: T½ in HLM
Protocol: (§1) General Experimental: Human and mouse liver microsomes were purchased from Xenotech at 20 mg/mL. NADPH (Sigma-Aldrich) 10 mM stocks were prepared in deionized water.
(§2) Procedure for Liver Microsome Stability Assay: Test compounds and positive controls were dissolved in 100% DMSO to make 10 mM stock solutions. Verapamil (Sigma-Aldrich) and diphenhydramine (Sigma-Aldrich) were used as positive controls for both human liver microsomes (HLM) and mouse liver microsomes (MLM). The 10 mM stock solutions of test and control compounds were further diluted in potassium phosphate buffer (100 mM, pH 7.4) to 500 μM to ensure that the organic solvent content was <0.2%. The liver microsome (HLM or MLM) assay was prepared in a 1.5 mL Eppendorf tube with a final volume of 1100 μL for duplicate runs. Each reaction contained phosphate buffer (928.4 μL), liver microsomes (55 μL), and test compound (6.6 μL of 500 μM), resulting in a final concentration of 3 μM for the test compound. The reaction was initiated with 110 μL of 10 mM NADPH. Aliquots (100 μL) were removed in duplicate at 0, 5, 10, 15, and 30 min and quenched in […] of 100% cold methanol which contained internal standard (ISTD: d5-7-ethoxy coumarin 2 μM). The aliquots were centrifuged at 12,000 g for 5 min, and the supernatant was transferred and placed in an LC-MS vial. Each time point was assessed by LC-MS/MS, and the area under the m/z curve (AUC), based on the MRM transition, was integrated w.r.t the ISTD. Positive controls were conducted at a final volume of 550 μL to enable a single run for each time point. Negative controls in the absence of NADPH were performed with the test and control compounds, respectively, at a final volume of 150 μL and measured at the most prolonged time point. Control compounds were processed and analyzed like test compounds. Each time point was run in triplicates on LC-MS/MS followed by in-between blank washes to avoid the carryover and to equilibrate the column. Half-life (T1/2) was calculated using the data obtained from LC-MS/MS and by plotting ln (% remaining of the parent prodrug) versus time and performing linear regression to determine slope. Slope=−k and T1/2=0.693/k for first-order kinetics.

[3] = Plasma stability assay (human plasma); type: in vitro ADME; details: 37° C., read-out: T½ in human plasma (converted)
Protocol: General Experimental: Procaine and Procainamide were purchased from Sigma-Aldrich. Human plasma was obtained from BioIVT (Cat. No. […]2N) and 1X Dulbecco's PBS (pH 7.4, Gibco) was obtained from Thermos Fischer. Stock solutions were prepared in 100% DMSO, and suitable dilutions of target analytes were prepared in methanol for method development.
Procedure for Plasma Stability Assay: Test compounds were dissolved in DMSO to make a stock solution of 10 mM and then diluted to 500 μM in buffer (or 70% MeOH). Human plasma was thawed at ambient temperature and is aliquoted ([…]) to a 1.5 mL Eppendorf tube in duplicates (A and B) for each compound. Plasma was incubated at 37° C. for 10 minutes in an incubator shaker at 150 rpm; the reaction was initiated by the addition of the test compound (6.0 μL) and vortex mixing. The total reaction volume was 1000 μL where the final organic solvent concentrations were 0.6% MeOH and 0.03% DMSO. The spiked plasma samples were incubated at 37° C. for 4 hrs. The reactions were terminated at time points 0, 15, 30, 60, 120, 180, and 240 min by taking a 100 μL aliquot from the test incubation mixture and immediately quenching it in ice-cold acetonitrile containing internal standard (150 μL with 2 μM ISTD), followed by a quick vortex mixing. In addition, matrix blank was prepared by adding acetonitrile solutions containing ISTD to plasma samples without any of the analytes or control compounds. Also, an additional tube was made to measure compound degradation in PBS buffer. The samples were centrifuged at 15000 rpm for 25 min at 4° C. The supernatant was transferred to an LC-MS vial for analysis by LC/MS-MS. Each time point was run in duplicates followed by in-between blank washes to avoid the carryover and to equilibrate the column. Half-life (T1/2) was calculated using the data obtained from LC-MS/MS and by plotting ln (% remaining of the parent prodrug) versus time and performing linear regression to determine slope. Slope=−k and T1/2=0.693/k for first-order kinetics.
These positive controls were run in parallel to test the systems for competency.

[4] = Liver microsome stability assay (MLM); type: in vitro ADME; details: mouse, mouse liver microsomes, pH 7.4; 3 μM test compound, NADPH; read-out: T 1/2 in MLM
Protocol: as §1
as §2, with “Each time point was run in triplicates on LC-MS/MS followed by in-between blank washes to avoid the carryover and to equilibrate the column.” left out, “Slope=−k and T1/2=0.693/k for first-order kinetics.” left out

physchem = type: physicochemical; details: aqueous buffer, kinetic from dmso stock; nephelometry, PBS pH 7.0-7.3, 1% DMSO, 25° C., 90 min
Protocol: General Experimental: Nephelometry experiments were performed using untreated Corning® Costar® 96-well black polystyrene plates with clear flat bottoms. Sample stock solutions and serial dilutions were prepared with DriSolv® DMSO purchased from MilliporeSigma. All 100-fold dilutions and replicate experiments were prepared using Gibco® Dulbecco's phosphate-buffered saline (DPBS, no calcium, no magnesium) with a pH range of 7.0-7.3 as aqueous media. […] Nephelometry data was obtained using a NEPHELOstar® microplate reader and processed with MARS data analysis software from BMG LabTech.
Procedure for Nephelometry Experiments: Tested compounds were dissolved in 100% DMSO to make stock solutions of specified concentrations, ranging from 10 mM minimum up to 50 mM maximum. The sample then underwent serial dilution in a 96-well plate (Corning® Costar®). Well A1 of the plate contained 100% DMSO. […] Using a 12 channel multichannel pipette, 2.5 μL of sample from row A was transferred to each well in row B through row H of the plate. Next, 30 μL of PBS (pH=7.0-7.3) was added to row B through row H, providing each well with 32.5 μL. The plate was then incubated for 30 sec with shaking. Finally, 217.5 μL of PBS buffer was added to row B through row H, and the entire plate was incubated with shaking at 25° C. for 90 min. Note: The final volume of DMSO in actual experiments with PBS buffer was 1% throughout the plate. After 90 min, the 96-well plate was analyzed with a NEPHELOstar® instrument and the data was processed with MARS data analysis software.

[5] = Plasma stability (mouse plasma); type: in vitro ADME; details: read-out: T½ in mouse plasma (converted)
[6] = daily oral doses of 10 mg/kg chronically administered; cited from earlier work

SMILES | half-life at 2 mM [1] [min] | half-life [2] [min] | half-life ([3]; unit min) [min] | half-life at 3 μM [4] [min] | solubility (physchem) [µM] | half-life ([5]; unit min) [min] | half-life [3] [min] | mean plasma concentration [6] [ng/mL] | half-life [5] [min]
C=C(C)[C@@H]1CCC(C)=C[C@H]1c1c(O)cc(CCCCC)cc1OC(=O)COP(=O)(O)O.N.N [7a, 2-(((1′R,2′R)-6-hydroxy-5′-methyl-4-pentyl-2′-(prop-1-en-2-yl)-1′,2′,3′,4′-tetrahydro-[1,1′-biphenyl]-2-yl)oxy)-2-oxoethyl phosphate di-ammonium salt] | 315 | 59 | 20 | 6.1 | > 500 | 4.5 | – | – | –
C=C(C)[C@@H]1CCC(C)=C[C@H]1c1c(O)cc(CCCCC)cc1OC(=O)C1(OP(=O)(O)OCCC(C)C)CC1.N [14c, 1-((((1′R,2′R)-6-hydroxy-5′-methyl-4-pentyl-2′-(prop-1-en-2-yl)-1′,2′,3′,4′-tetrahydro-[1,1′-biphenyl]-2-yl)oxy)carbonyl)cyclopropyl isopentyl phosphate ammonium salt] | – | 24 | – | – | 345 ± 4.51 | – | > 240 | – | –
C=C(C)[C@@H]1CCC(C)=C[C@H]1c1c(O)cc(CCCCC)cc1OC(=O)C1(OP(=O)(O)OCC(CCC)CCC)CC1.N [14h, 1-((((1′R,2′R)-6-hydroxy-5′-methyl-4-pentyl-2′-(prop-1-en-2-yl)-1′,2′,3′,4′-tetrahydro-[1,1′-biphenyl]-2-yl)oxy)carbonyl)cyclopropyl (2-propylpentyl) phosphate ammonium salt] | – | 26 | – | – | 66 ± 3.17 | – | > 240 | – | –
C=C(C)[C@@H]1CCC(C)=C[C@H]1c1c(O)cc(CCCCC)cc1O [CBD, Cannabidiol, reference compound] | > 180 | 5.8 | – | 2.9 | 16.9 ± 0.55 (≈ 5.32 µg/mL) | – | – | 5.9 to 11.2 | 576
C=C(C)[C@@H]1CCC(C)=C[C@H]1c1c(O)cc(CCCCC)cc1OC(=O)C1(OP(=O)(O)OCCCCC)CC1.N [14b, 1-((((1′R,2′R)-6-hydroxy-5′-methyl-4-pentyl-2′-(prop-1-en-2-yl)-1′,2′,3′,4′-tetrahydro-[1,1′-biphenyl]-2-yl)oxy)carbonyl)cyclopropyl pentyl phosphate ammonium salt] | – | 24 | – | – | 276 ± 4.52 | – | 576 | – | –
C=C(C)[C@@H]1CCC(C)=C[C@H]1c1c(O)cc(CCCCC)cc1OC(=O)C1(OP(=O)(O)OCCCCCCCCC)CC1.N [14f, 1-((((1′R,2′R)-6-hydroxy-5′-methyl-4-pentyl-2′-(prop-1-en-2-yl)-1′,2′,3′,4′-tetrahydro-[1,1′-biphenyl]-2-yl)oxy)carbonyl)cyclopropyl nonyl phosphate ammonium salt] | – | > 30 | – | – | 67 ± 5.98 | – | > 240 | – | –
C=C(C)[C@@H]1CCC(C)=C[C@H]1c1c(O)cc(CCCCC)cc1OC(=O)OCCCOP(=O)(O)O.N.N [29b, (1′R,2′R)-6-hydroxy-5′-methyl-4-pentyl-2′-(prop-1-en-2-yl)-1′,2′,3′,4′-tetrahydro-[1,1′-biphenyl]-2-yl(3-(phosphonooxy)propyl) carbonate di-ammonium salt] | – | 19 | – | – | > 500 | – | > 240 | – | –
C=C(C)[C@@H]1CCC(C)=C[C@H]1c1c(O)cc(CCCCC)cc1OC(=O)C1(OP(=O)(O)OCCCCCCCCCC)CC1.N [14g, decyl (1-((((1′R,2′R)-6-hydroxy-5′-methyl-4-pentyl-2′-(prop-1-en-2-yl)-1′,2′,3′,4′-tetrahydro-[1,1′-biphenyl]-2-yl)oxy)carbonyl)cyclopropyl) phosphate ammonium salt] | – | > 30 | – | – | 75 ± 2.14 | – | > 240 | – | –
C=C(C)[C@@H]1CCC(C)=C[C@H]1c1c(O)cc(CCCCC)cc1OC(=O)OCCOP(=O)(O)O.N.N [29a, (1′R,2′R)-6-hydroxy-5′-methyl-4-pentyl-2′-(prop-1-en-2-yl)-1′,2′,3′,4′-tetrahydro-[1,1′-biphenyl]-2-yl(2-(phosphonooxy)ethyl) carbonate di-ammonium salt] | – | 42 | – | – | > 500 | – | 990 | – | –
C=C(C)[C@@H]1CCC(C)=C[C@H]1c1c(O)cc(CCCCC)cc1OC(=O)C(C)OP(=O)(O)O.N.N (stereo partly drawn) [7d, 1-(((1′R,2′R)-6-hydroxy-5′-methyl-4-pentyl-2′-(prop-1-en-2-yl)-1′,2′,3′,4′-tetrahydro-[1,1′-biphenyl]-2-yl)oxy)-1-oxopropan-2-yl phosphate di-ammonium salt] | – | 50 | 21 | – | > 500 | – | – | – | –
